Test results from patent US9365833B2, “Leucine zipper variant and use thereof” (Samsung Electronics Co., Ltd., priority 2013, dated 2016).

Tested on: skin cancer cell line A-431
Test: cancer cell growth inhibition (CellTiter-Glo cell viability)
Assay type: cell-based
Conditions: mutant p53 expression, up to 15 μM, 5 days; FIG. 11
Procedure: The leucine zipper variant p53LZ2 was evaluated for anticancer activity against the osteosarcoma cell line SJSA-1 (ATCC), the breast cancer cell line MCF7 (ATCC), and the skin cancer cell line A-431 (ATCC), the first two expressing wild-type p53 and the other expressing mutant p53.
Each of the cell lines was seeded at a density of 1×10^3 cells/well in 10% FBS-supplemented RPMI (Gibco) or DMEM (Gibco) into 96-well plates. The next day, the leucine zipper variant (TAT-p53LZ2; TAT (RKKRRQRRR; SEQ ID NO: 5) linked to the N-terminus of p53LZ2, constructed in Example 1) or Nutlin-3 (Sigma) was added at a concentration of 0, 0.59, 0.88, 1.32, 1.98, 2.96, 4.44, 6.67, 10, or 15 μM (increasing by 1.5 fold) in an amount of 100 μL to each well before the cells were cultured for 5 days at 37° C. in an 5% CO2 incubator. To each well was added 80 μL of CellTiter-Glo reagent (Promega), followed by measuring luminescence on EnVision Multilabel Reader (PerkinElmer) to examine cell viability.

COc1ccc(C2=N[C@@H](c3ccc(Cl)cc3)[C@@H](c3ccc(Cl)cc3)N2C(=O)N2CCNC(=O)C2)c(OC(C)C)c1 [Nutlin-3]
cytotoxicity in A431 cell line: failed to exert cytotoxicity
